In BindingDB's records for doi:10.1016/j.bmc.2018.04.029 (Shenyang Pharmaceutical University, 2018) one finds EC50 data, which are given here for eleven compounds.

The nature of this experiment: Inhibition of Hepatitis C virus genotype 1b NS5B RNA-dependent-RNA polymerase assessed as reduction in viral replication after 72 hrs by indirect immunofluorescence assay.
On to `Cc1cc(C)n2nc(Cn3cc(Cn4ccc5nc(-c6ccccc6F)nc-5c4)nn3)nc2n1`, for which the EC50 is 84 nM.
As for `O=c1ncccn1Cc1ccc(-n2cc(Cn3ccc4nc(-c5ccccc5F)nc-4c3)nn2)cc1`, the half-maximal effective concentration (EC50) is 96 nM.
With `CS(=O)(=O)Nc1ccc(-n2cc(Cn3ccc4nc(-c5ccccc5F)nc-4c3)nn2)cc1`, the concentration for a half-maximal effect (EC50) came to 18 nM.
On to `Fc1ccccc1-c1nc2ccn(Cc3cn(-c4ccccc4)nn3)cc-2n1`, for which the EC50 worked out at 23 nM.
To `COc1cccc(-n2cc(Cn3ccc4nc(-c5ccccc5F)nc-4c3)nn2)c1` belongs 13 nM; to `Fc1ccccc1-c1nc2ccn(Cc3cn(-c4ccccc4F)nn3)cc-2n1`, 52 nM.
The value for `COc1ccc(-n2cc(Cn3ccc4nc(-c5ccccc5F)nc-4c3)nn2)cc1` was 1.2 nM; that for `Cc1cc(C)n2cc(Cn3cc(Cn4ccc5nc(-c6ccccc6F)nc-5c4)nn3)nc2n1` was 37 nM; that for `O=c1ccccn1Cc1ccc(-n2cc(Cn3ccc4nc(-c5ccccc5F)nc-4c3)nn2)cc1` was 93 nM.
The value for `Fc1ccc(-n2cc(Cn3ccc4nc(-c5ccccc5F)nc-4c3)nn2)cc1` was 35 nM.
`Fc1ccccc1-c1nc2ccn(Cc3cn(Cc4cn5cccnc5n4)nn3)cc-2n1`: the EC50 was determined as 21 nM.
